Assay results taken from patent US7395112B2, “Method and apparatus for treating tumors using low strength electric fields” (priority 2002, dated 2008).

Assays:
[1] = system: CT-26 colon carcinoma; test: LEF with chemotherapy (LEFCT-EC) in mice bearing 5 mm CT-26 tumors; format: in vivo, BALB/C mice
Procedure: Mice: BALB/C male mice were obtained from the breeding colony of Tel-Aviv University, Israel. Mice were used at 8-12 weeks of age. Animal care and experimentation were performed in accordance with the Tel-Aviv University guidelines.
Tumor: Colon carcinoma tumors were grown in mice with CT-26, a metastatic colon carcinoma cell line induced in a BALB/c mouse by chemical carcinogenesis. Cells were cultured in Dulbecco's modified Eagle's medium (DMEM) supplemented with 100 U/ml penicillin, 100 μg/ml streptomycin, 2 mM L-glutamine; 1 mM sodium pyruvate; 1% non-essential amino acid solution; 10% heat-inactivated fetal calf serum. Cultures were maintained at 37° C. in a humidified incubator with a 5% CO2 atmosphere.
Tumor cell inoculation: Mice were inoculated intracutaneously with 10^5 CT-26 cells suspended in 100 μL PBS into the low lateral side of the back. Local tumor growth was determined by measuring three mutually orthogonal tumor diameters with a caliper. The volume of tumor was calculated using the formula: Vol=D1×D2×D3×π/6, where D1, D2, D3 are three mutually orthogonal tumor diameters.
Low-strength electric field stimulation: To subject tumors to LEFs, stainless steel needles were used as electrodes. Tumors 5 mm in diameter (about 65 mm^3) were transfixed by electrode needles, with one cathode in the center of the tumor and three or four peripheral anodes. The electrodes were connected to an electric pulse generator and to an oscilloscope. Pulsed LEFs with a repetition frequency of 500 Hz and a pulse width of 180 μs were applied at 20, 40, 60 and 70 V/cm for a duration 12 min or 20 min. The electric pulses were administered 2-4 min following chemotherapeutic drug administration. Mice were anesthetized 10 min before the procedure.
Chemotherapeutic agents: Bleomycin (Sigma Israel Chemicals Ltd., Israel; Megapharm Ltd., Israel) was kept at a temperature of 2-8° C., and was dissolved in pyrogen-free PBS to a concentration enabling dosages of 50 U/kg body weight prior to use. BCNU was administered at a dosage of 35 mg/kg body weight, and 5-FU (Abic, Israel) was used at a dose of 100 mg/kg body weight.
Anesthesia: Mice were anesthetized using an anesthetic cocktail comprising a dose of imalgen at 100 mg/kg body weight and xylazine hydrochloride at 6.25 mg/kg body weight dissolved in PBS injected intraperitoneally in a volume of 0.25 ml per mouse 10 min prior to LEF treatment.
Statistical analysis: Survival times (Kaplan-Meir test), survival comparisons between groups (Mantel-Cox test), and tumor volume differences between groups were plotted using StatSoft “Statistica” statistical software.
Effect of LEF duration and strength on potentiation of bleomycin for treatment of colon carcinoma: In order to determine the optimal LEFCT-EC/bleomycin therapy for treatment of colon cancer, mice bearing CT-26 tumors were treated with LEFs of 40 V/cm for 12 min, and 20 V/cm for 12 or 20 min with or without administration of bleomycin, and survival was analyzed.

[2] = system: DA3 mammary adenocarcinoma; test: LEFCT-EC in mice bearing DA3 mammary adenocarcinoma; format: in vivo, BALB/c mice
Procedure: Animals: BALB/c female mice between the ages of 8 to 12 weeks obtained from the breeding colony of Tel-Aviv University, Israel were used in vivo tumor therapy experiments. Animal care and experimentation was carried out in accordance with Tel-Aviv University guidelines.
Tumor cell line: The highly metastatic, poorly immunogenic mammary adenocarcinoma cell line DA3 (Lopez D M. et al., 1981. J Natl Cancer Inst. 66:191) was used to generate mammary carcinoma tumors in mice. Cells were grown in DMEM supplemented with 100 U/ml penicillin, 100 μg/ml streptomycin, 4 mM glutamine, 1 mM sodium pyruvate, 1% non-essential amino acids and 10% heat-inactivated fetal calf serum (FCS), and cultured at 37° C. in a humidified incubator in an atmosphere of 7% carbon dioxide and 93% air. Tumors of this cell line grown to 1 cm in diameter produce metastatic cells, mainly in the lungs.
Reagents: Taxol (Mead Johnson Oncology Products, A Bristol-Myers Squibb, USA), obtained as a sterile nonpyrogenic solution containing 6 mg/ml paclitaxel, 527 mg/ml of purified Cremophor EL (polyoxyethylated castor oil) and 49.7% (v/v) dehydrated ethanol; and bleomycin (MegaPharm, Israel) were the anti cancer drugs used.
Low-strength electric field enhanced cancer chemotherapy protocol: Mice were subjected to a single treatment of LEF-chemotherapy, once primary tumors reached 5 mm in diameter (about 60-70 mm^3) (11-17 days following subcutaneous tumor cell inoculation). Up to 100 μl of chemotherapeutic agents was injected into the tumor loci. The exposure to electric field was carried out as described above in Example 2 of the Examples section.
Effect of LEFCT-EC using bleomycin or taxol on the survival of DA3 mammary adenocarcinoma bearing nice: BALB/c mice bearing DA3 mammary adenocarcinoma were treated by LEF-chemotherapy with intratumoral taxol (20 mg/kg) (FIG. 19) or bleomycin (30 U/kg) (FIG. 20) administration and their survival rate was compared with that of mice treated only with LEF or chemotherapy.

bleomycin was tested, and the “survival with bleomycin + LEF compared with LEF alone” value ([1]; LEF 40 V/cm 12 min, 20 V/cm 12 or 20 min, all combinations tested) was “greatly enhanced”, the cure rate ([1]; LEFCT-EC: drug + LEF 40 V/cm 12 min, 5 mm tumors) was 33% and the “tumor size with drug + LEF relative to drug only” value ([1]; after 21 days) was “less than half the size”. For the same substance, the survival rate ([1]; bleomycin intratumoral + LEF 40 V/cm 12 min, after 60 days, unchanged until day 120) was 33%, the “time after which half the mice died” value ([1]; drug alone, no LEF, intratumoral injection (5-FU intratumoral or intravenous), 5 mm tumors) was “about 51 days” and the “survival time, Mean” value ([2]; LEF-chemotherapy with the drug) was 85.3. For the same substance, the “survival time, Median” value ([2]; LEF-chemotherapy with the drug) was 64.5, the cure rate ([2]; LEF-chemotherapy, intratumoral taxol 20 mg/kg or bleomycin 30 U/kg, 180 days after tumor inoculation) was 30% and the “survival time, Mean” value ([2]; drug alone, intratumoral) was 40.2. For the same substance, the “survival time, Median” value ([2]; drug alone, intratumoral) was 37.5.
